Reference: article PMC8333053, “Synthesis and biological screening of new thiadiazolopyrimidine-based polycyclic compounds” (Scientific Reports, 2021)
Converted amounts (≈) assume the structure as drawn. Each block holds one compound with its values, some of them ahead of it.

Experiments:
[1] = tested on: HepG2; test: MTT cytotoxicity assay; assay type: cell-based; settings: Homo sapiens, HepG2, 72 h, 3 days
Protocol: (§1) The cytotoxicity of the prepared tri-and tetra-cyclic thiadiazolopyrimidine compounds were examined toward various cancer cell lines, such as liver and breast cancer (MCF-7), prostate cancer (PC3), laryngeal carcinoma (Hep-2), carcinoma (HepG2), and standard normal fibroblast cells (WI38) using the MTT assay[33] at the National Research Centre (Egypt). The cytotoxicity (Table 3) toward 50% inhibition of the cell viability (IC50 values) was assessed using 5-fluorouracil (5-Fu) as the standard anticancer drug.
(§2) The synthesized compounds were subjected to the MTT cytotoxicity assay on the basis of the cited literature.
(§3) MTT cytotoxicity assay: The technical method of MTT assay depends on the reduction of yellow 3-(4,5-methyl-2-thiazolyl)-2,5-diphenyl-2H-tetrazolium bromide (MTT) into purple formazan product, mainly by mitochondrial reductase activity inside the living cells. The cells used in cytotoxicity assay were cultured in RPMI 1640 medium supplemented with 10% fetal calf serum. Cells suspended in the medium (2×10^4 cells/mL) were plated in 96-well culture plates and incubated at 37 °C in a 5% CO2 incubator for 12 hours. The tested sample (2 μL) was added to the cells (2×10^4) in 96-well plates and cultured at 37 °C for 3 days. The cultured cells were mixed with 20 μL of MTT solution and incubated for 4 hours at 37 °C. The supernatant was carefully removed from each well, the formazan crystals were dissolved after addition of DMSO (100 μL) for each well to form the cellular reduction of MTT. After mixing with a mechanical plate mixer, the absorbance of each well was measured by a microplate reader using a test wavelength of 570 nm. The results were expressed as the IC50 values, which inducing 50% inhibition of cell growth of the treated cells when compared to the growth of control cells.

[2] = tested on: PC3; test: MTT cytotoxicity assay; assay type: cell-based; settings: Homo sapiens, PC-3, 72 h, 3 days
Protocol: as §1, §2, §3

[3] = tested on: MCF-7; test: MTT cytotoxicity assay; assay type: cell-based; settings: Homo sapiens, MCF7, 72 h, 3 days
Protocol: as §1, §2, §3

[4] = tested on: Hep-2; test: MTT cytotoxicity assay; assay type: cell-based; settings: Homo sapiens, HEp-2, 72 h, 3 days
Protocol: as §1, §2, §3

[5] = MTT cytotoxicity assay on normal cells; assay type: cell-based; settings: human, WI38 normal fibroblast cells
Protocol: as §1, §2, §3

[6] = tested on: DNA; test: Bleomycin-dependent DNA damage; assay type: biochemical; settings: test sample 0.1 mg/mL, λ = 532 nm; mean of three replicates ± SD; ascorbic acid 0.24 mM
From the text: Bleomycin-dependent DNA damage. The prepared polycyclic thiadiazolopyrimidine-based compounds were examined through the bleomycin-dependant DNA damage, and the results were compared to that of ascorbic acid as a positive control. The obtained data reflected the ability of these derivatives to protect the DNA from damage. The capability of compounds 16a–b and 17a–b to manifest the best protective effect against DNA damage was indicated by the corresponding absorbance values ranging from 0.031 to 0.053 (Table 4)[35],[36].
Bleomycin-dependent DNA damage experiment: To a mixture of 0.5 mg / mL of DNA, 5 mM magnesium chloride, 50 mM ferric chloride and 0.05 mg / mL bleomycin sulfate was prepared. The test sample was prepared at a concentration of 0.1 mg / mL and added to the mixture. After incubation of the mixture for one hour at 37 °C, 0.05 mL of EDTA (0.1 M) was added to terminate the reaction. In the next step, 0.5 mL of TBA (1% w / v) and 0.5 mL of HCl (25% v / v) were added for colour development and the mixture was heated for 10 minutes at 80 °C. The mixture was centrifuged and the absorbance expressed, the amount of damage to the DNA was measured at λ = 532 nm. L-Ascorbic acid (0.24 mM) was used as a positive control.

[7] = tested on: Aspergillus fumigatus 293; test: Antifungal MIC, two-fold serial dilution; assay type: cell-based; settings: Fungi, glucose minimal medium, 30°C, 48 h, visual (no turbidity)
Protocol: (§4) The antimicrobial activity of the synthesized thiadiazolopyrimidine compounds was studied toward diverse pathogenic strains, such as gram-positive bacteria (Staphylococcus aureus ATCC 29213 and Bacillus cereus UW85), gram-negative bacteria (Escherichia coli ATCC 12435 and Pseudomonas aeruginosa ATCC 29260), and fungi (Candida albicans and Aspergillus fumigatus 293). The assessment was performed through the two-fold dilution technique using Ampicillin (antibacterial) and Fluconazole (antifungal) as the reference drugs[28],[29]. The minimal inhibitory concentration (MICs, µg/mL) of the synthesized derivatives for prohibiting microbial growth was determined through the visual detection (no turbidity) technique.
(§5) The synthesized thiadiazolopyrimidine-based compounds were evaluated and adopted for antibacterial and antifungal effectiveness using the approved procedure[38],[39].
(§6) Minimal inhibitory concentrations (MICs) were determined by serial dilution technique using 96-multiwell microtiter plates. The investigated compounds were dissolved in DMSO 100% to prepare stock solutions of 5000 µg/mL. Two-fold serial dilutions of the dissolved compounds were performed in glucose minimal medium providing eight different concentrations (1250, 625, 312.5, 156, 78, 39, 19.5 µg/mL). The microorganisms were diluted to 1 ×10^3 SFU/mL in glucose minimal medium, and 20 µL of the diluted culture was added to the test solutions (50 µL) in the wells (one well per concentration). The plates were incubated at 30°C for 48 h. MIC was detected visually as the least concentration inhibiting fungal growth (no turbidity) and the activity of the tested compounds was estimated in comparison to fluconazole.

[8] = tested on: Candida albicans; test: Antifungal MIC, two-fold serial dilution; assay type: cell-based; settings: Fungi, glucose minimal medium, 30°C, 48 h, visual (no turbidity)
Protocol: as §4, §5, §6

[9] = tested on: Staphylococcus aureus ATCC 29213; test: Antibacterial MIC, two-fold serial dilution; assay type: cell-based; settings: ATCC29213, Gram +ve bacteria, LB broth, 37°C, 24 h, visual (no turbidity), read-out: MIC S. aureus
Protocol: as §4, §5
(§7) Minimal inhibitory concentrations (MICs) were determined by serial dilution technique using 96-multiwell microtiter plates. The investigated compounds were dissolved in DMSO 100% to prepare stock solutions of 5000 µg/mL. Two-fold serial dilutions of the dissolved compounds were performed in LB broth providing eight different concentrations (1250, 625, 312.5, 156, 78, 39, 19.5 µg/mL). Overnight cultures of microorganisms were diluted to 1 ×10^6 CFU/mL in LB broth, and 20 mL of the diluted cultures were added to the test solutions (50 mL) in the wells (one well per concentration per bacterial strain). The plates were incubated at 37°C for 24 h. MIC was detected visually as the least concentration inhibiting bacterial growth (no turbidity) and the activity of the tested compounds was estimated in comparison to ampicillin.

[10] = tested on: Escherichia coli ATCC 12435; test: Antibacterial MIC, two-fold serial dilution; assay type: cell-based; settings: ATCC12435, Gram −ve bacteria, LB broth, 37°C, 24 h, visual (no turbidity)
Protocol: as §4, §5, §7

[11] = tested on: Pseudomonas aeruginosa ATCC 29260; test: Antibacterial MIC, two-fold serial dilution; assay type: cell-based; settings: ATCC29260, Gram −ve bacteria, LB broth, 37°C, 24 h, visual (no turbidity), read-out: MIC P. aeruginosa
Protocol: as §4, §5, §7

[12] = tested on: Bacillus cereus UW85; test: Antibacterial MIC, two-fold serial dilution; assay type: cell-based; settings: Gram +ve bacteria, LB broth, 37°C, 24 h, visual (no turbidity), read-out: MIC B. cereus
Protocol: as §4, §5, §7

[13] = tested on: Chromobacterium violaceum (ATCC 12472); test: Antiquorum-sensing assay (violacein pigment inhibition); assay type: cell-based; settings: 5 mg/mL, 50 µL per well, 30°C, 48 h; QS inhibition = r2 − r1
From the text: The synthesized thiadiazolopyrimidine-based compounds were screened for their antiquorum-sensing (anti-QS) inhibition activity by the Chromobacterium violaceum (ATCC 12472) technique using catechin as the standard compound[28]–[30]. The QS technique of C. violaceum was remarked by the detection of violacein (violet pigment)[31],[32]. Meanwhile, the reactivity of the synthesized thiadiazolopyrimidine-containing derivatives as drugs depends on their efficiency to inhibit the liberation of violacein during the QS technique. The QS inhibition was determined by the following equation: QS inhibition (mm) = (r2 − r1), where r1 is the inhibition radius of the bacterial growth and r2 is the inhibition radius for growth as well as the release of the pigment.
The anti-QS inefficiency was evaluated using the previous technique mentioned in the literature.
The culture was prepared by growing Ch. violaceum ATCC 12472 in LB broth and incubated for 16–18 h in an orbital incubator running at 28°C and 150 rpm. The culture was then adjusted to 0.5 McFarland standard (ca. 1 × 10^6 CFU/mL). Ch. violaceum (50 µL) was inoculated into LB agar (50 mL), poured into plates, and solidified. Wells were made in LB agar medium using cork borer. The tested compounds were dissolved in DMSO 100% in Eppendorf tubes for final concentration of 5 mg/mL, and 50 µL of the test solution was applied into the wells. The positive control (catechin) was also added at the same concentration and volume to each plate. In addition, DMSO (control solvent) was added to each plate. […] Bacterial growth inhibition by the tested compounds was measured as radius (r1) in mm, while both growth and pigment inhibition was measured as radius (r2) in mm. The pigment inhibition (QS inhibition) was determined by subtracting bacterial growth inhibition (r1) from the total radius (r2); thus, QS inhibition = (r2 - r1) in mm.

SMILES: O=c1[nH]cc(F)c(=O)[nH]1 [Compound 5-Fu, 5-Fluorouracil, reference compound]
IC50 [1]: 7.2 ± 0.45 µM | IC50 [2]: 8.78 ± 0.6 µM | IC50 [3]: 5.58 ± 0.31 µM | IC50 [4]: 5.35 ± 0.23 µM | IC50 at 3 days [5]: 10.3 ± 0.62 µM

SMILES: O=C1O[C@H]([C@@H](O)CO)C(O)=C1O [Ascorbic acid, L-Ascorbic acid, reference compound]
Absorbance (bleomycin-dependent DNA damage) [6]: 0.060 ± 0.02

MIC [8]: > 1250 µg/mL
SMILES: OC(Cn1cncn1)(Cn1cncn1)c1ccc(F)cc1F [Fluconazole, reference compound]
MIC [7]: > 1250 µg/mL

SMILES: CC1(C)S[C@@H]2[C@H](NC(=O)[C@H](N)c3ccccc3)C(=O)N2[C@H]1C(=O)O [Ampicillin, reference compound]
MIC [9]: > 1250 µg/mL | MIC [10]: 19.5 µg/mL (≈ 0.0558 mM) | MIC [11]: 78 µg/mL (≈ 0.223 mM) | MIC [12]: 1250 µg/mL (≈ 3.58 mM)

SMILES: O.Oc1cc(O)c2c(c1)O[C@H](c1ccc(O)c(O)c1)[C@@H](O)C2 [Catechin, catechin, reference compound]
Diameter of quorum-sensing inhibition C. violaceum [13]: 2 mm
